The results in this text go back to ChEMBL document CHEMBL5036383, “Azapodophyllotoxin Causes Lymphoma and Kidney Cancer Regression by Disrupting Tubulin and Monoglycerols” (2022).

Assay [1] has as its system A498. In words: Anticancer activity against human A498 cells assessed as reduction of cell viability at 70 nM relative to control. It counts as functional.
Assay [2] in a line: Anticancer activity against human P493-6 cells assessed as reduction of cell viability at 140 nM relative to control. It counts as functional.
Assay [3] has as its system KOPTK1. As to the kind of experiment: Anticancer activity against human KOPT-K1 cells assessed as reduction of cell viability at 280 nM relative to control. The class given is functional.
The nature of assay [4]: Anticancer activity against transgenic mouse RCC E28 cells assessed as reduction of cell proliferation at 70 nM for 48 hrs relative to control. Also on record: scale not given: the % may be the effect or the level left. The class given is functional.
A short description of assay [5]: Anticancer activity against transgenic mouse RCC E28 cells assessed as reduction of cell proliferation at 140 nM for 48 hrs relative to 70 uM treatment. It counts as functional.
For assay [6], the system named is CCRF-CEM. In words: Anticancer activity against human CCRF-CEM cells assessed as reduction of cell viability at 70 nM relative to control. The class given is functional.
Assay [7] in a line: Anticancer activity against human DND41 cells assessed as reduction of cell viability at 70 nM relative to control. It counts as functional.
Assay [8] has as its system KOPTK1. As to the kind of experiment: Anticancer activity against human KOPT-K1 cells assessed as reduction of cell viability at 70 nM relative to control. It counts as functional.
The nature of assay [9]: Anticancer activity against human P493-6 cells assessed as reduction of cell viability at 70 nM relative to control. The class given is functional.
Assay [10] in a line: Anticancer activity against human 6780 cell cells assessed as reduction of cell viability at 70 nM relative to control. The class given is functional.
Assay [11] has as its system CCRF-CEM. In words: Anticancer activity against human CCRF-CEM cells assessed as reduction of cell viability at 140 nM relative to control. The class given is functional.
Assay [12] in a line: Anticancer activity against human 6780 cell cells assessed as reduction of cell viability at 140 nM relative to control. It counts as functional.
Assay [13] deals with KOPTK1. As to the kind of experiment: Anticancer activity against human KOPT-K1 cells assessed as reduction of cell viability at 140 nM relative to control. The class given is functional.
A short description of assay [14]: Anticancer activity against human 6780 cell cells assessed as reduction of cell viability at 280 nM relative to control. It counts as functional.
Assay [15] deals with CCRF-CEM. As to the kind of experiment: Anticancer activity against human CCRF-CEM cells assessed as reduction of cell viability at 280 nM relative to control. The class given is functional.
Assay [16] can be described thus: Anticancer activity against human P493-6 cells assessed as reduction of cell viability at 280 nM relative to control. The class given is functional.
In assay [17] the test system is A498. In words: Antitumour activity against human A498 cells xenografted in mouse assessed as reduction of tumour weight, IT measured after 1 week. The settings on record: time 1.0 weeks. It counts as functional, cell-based. Background: In xenograft studies the graft and the host belong to different species.
Assay [18] concerns CCRF-CEM. As to the kind of experiment: Antitumour activity against human CCRF-CEM xenografted in mouse assessed as reduction of tumour volume, IT measured after 1 week. The class given is functional. The settings on record: time 1.0 weeks.
Another assay concerns the target Tubulin (Homo sapiens) (UniProt P68371+Q9H4B7+P0DPH7+P68366+Q13509+Q71U36+P04350+Q3ZCM7+P07437+P68363+Q9BQE3+Q6PEY2+Q13885+Q9BVA1+Q9BUF5). In words: Inhibition of tubulin polymerization (unknown origin). The class given is protein-complex assay.
The test system of assay [19] is CCRF-CEM. In words: Inhibition of lipid metabolism in human CCRF-CEM cells assessed as increase in mono glycerol level measured after 1 week treatment by DESI-MSI. The class given is functional, cell-based. The settings on record: time 1.0 weeks.
The test system of assay [20] is Mus musculus. In words: Antitubulin activity against human CCRF-CEM cells xenografted in IT dosed mouse assessed as fold decrease in tubulin fine needle aspirates treated for 1 week by nano-immuno assay relative to control. The class given is functional. Particulars: time 1 weeks.
Assay [21] concerns Mus musculus. In words: Antitubulin activity against human CCRF-CEM cells xenografted in IT dosed mouse assessed as decrease in tubulin level treated for 1 week by nano-immuno assay. It counts as functional, organism-based. The settings on record: time 1.0 weeks.

Activity calls are given as the source filed them. No cut-off for these calls is given here.

Consider `O=C1OCC2=C1C(c1ccccc1)c1cc3c(cc1N2CCO)OCCO3` (stereo not drawn), for which the Activity with A498 [1] turned out to be 30%.

Regarding `O=C1OCC2=C1C(c1ccccc1)c1cc3c(cc1N2CCO)OCO3` (stereo not drawn), the Activity in the assay with A498 [1] is 30%.

Turning to `O=C1OCC2=C1C(c1cccc(C(F)(F)F)c1)c1cc3c(cc1N2CCO)CCC3` (stereo not drawn), the Activity in the assay on A498 [1] came out at 83%.

As to `O=C1OCC2=C1C(c1cccc(C(F)(F)F)c1)c1cc3c(cc1N2CCO)OCCO3` (stereo not drawn), the Activity in the assay on A498 [1] came out at 80%.

`O=C1OCC2=C1C(c1cccc(Br)c1)c1cc3c(cc1N2CCO)CCC3` (stereo not drawn): in the assay with A498 [1], the Activity amounted to 90%.

As to `O=C1OCC2=C1C(c1cccc(Br)c1)c1cc3c(cc1N2CCO)OCCO3` (stereo not drawn), the Activity in the assay with A498 [1] is recorded as 87%.

Regarding `COc1cc(C2C3=C(COC3=O)N(CCO)c3cc4c(cc32)CCC4)cc(OC)c1OC` (stereo not drawn), the Activity in assay [2] turned out to be 90%; with KOPTK1 [3] it was 89%; in assay [4], 90%; in the assay on CCRF-CEM [6], 90%; in [7] it was 95%; in the assay on KOPTK1 [8] it was 85%. For the same molecule, the Activity in assay [9] is reported as 85%; in assay [10], 90%; in the assay with CCRF-CEM [11], 92%; in assay [12] it was 94%; with KOPTK1 [13], 87%; in assay [14], 96%. Moreover, the figures for the Activity (in the assay on CCRF-CEM [15]; in assay [16]; in the assay with A498 [1]) were 96%, 98% and 95%, respectively. Besides, the “fold change (FC)” value (in [5]; in the assay with Mus musculus [20]) was 2 each time. The outcome in the assay on A498 [17], in the assay on CCRF-CEM [18] and with Mus musculus [21] was Active. The inhibition result at Tubulin (Homo sapiens) and with CCRF-CEM [19] was “Active” each time.
